# Test results: paper PMC4794603 (Molecules and Cells, 2016)
# Where two headings read alike, the source gives them in different places.
# Experiments:
# [1] = target: T1, CYP107W1 (Streptomyces avermitilis, UniProt Q93HJ0); assay: co-crystal structure at […] Å; format: binding
# T1 sequence (Q93HJ0 1-404): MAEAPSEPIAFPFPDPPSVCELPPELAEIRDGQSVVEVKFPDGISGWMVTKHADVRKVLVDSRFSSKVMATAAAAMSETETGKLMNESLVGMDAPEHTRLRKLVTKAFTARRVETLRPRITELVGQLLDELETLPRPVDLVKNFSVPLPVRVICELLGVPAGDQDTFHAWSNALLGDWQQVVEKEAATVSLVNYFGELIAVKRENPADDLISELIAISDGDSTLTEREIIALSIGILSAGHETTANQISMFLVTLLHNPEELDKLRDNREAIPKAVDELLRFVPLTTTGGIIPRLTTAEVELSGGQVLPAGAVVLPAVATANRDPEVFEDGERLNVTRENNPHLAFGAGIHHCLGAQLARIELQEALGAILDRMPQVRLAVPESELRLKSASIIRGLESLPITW
# [2] = target: T2, CYP107W1 W178G mutant (Streptomyces avermitilis, UniProt Q93HJ0, W178G); assay: UV-vis spectral binding titration
# T2 sequence (Q93HJ0 1-404 W178G): T1 sequence (Q93HJ0 1-404)
# [3] = target: T2, CYP107W1 W178G mutant; assay: UV-vis spectral binding titration; remark: listed apart in the source
# [4] = tested on: [H][C@@]12OC(=O)C=C[C@@H](C)[C@H](O)[C@@H](C)C(=O)[C@@H](C)[C@H](O)[C@@H](C)C(=O)[C@H](C)[C@H](O)[C@@H](C)CC=CC=C[C@@H](CC)CC[C@@]([H])(O[C@@]3(CC[C@@H](C)[C@@H](C[C@H](C)O)O3)[C@@H]1C)[C@@H]2C; assay: purified protein; conditions: heme
molecule,measurement,setting,value
"CC[C@H]1/C=C\C=C\C[C@@H](C)[C@H](O)[C@@](C)(O)C(=O)[C@@H](C)[C@H](O)[C@@H](C)C(=O)[C@@H](C)[C@H](O)[C@@H](C)/C=C/C(=O)O[C@@H]2[C@H](C)[C@H](CC1)O[C@]1(CC[C@H](C)[C@H](C[C@@H](C)O)O1)[C@H]2C [OliA, oligomycin A]",co-crystal structure at 2.6 Å,[1],Coordinates and structure factors of CYP107W1-OliA have been deposited in the Protein Data Bank with accession number 4WQ0.
CC[C@@H]1/C=C/C=C/C[C@H](C)[C@H](O)[C@](C)(O)C(=O)[C@H](C)[C@@H](O)[C@H](C)C(=O)[C@H](C)[C@@H](O)[C@H](C)/C=C/C(=O)O[C@H]2[C@@H](C)[C@@H](CC1)O[C@@]1(CC[C@@H](C)[C@@H](C[C@H](C)O)O1)[C@@H]2C [oligomycin A],Kd,[2],4.3 ± 0.7 µM
Clc1ccc(COC(Cn2ccnc2)c2ccc(Cl)cc2Cl)c(Cl)c1 (centres unmarked) [miconazole],Kd,[3],3.1 ± 0.3 µM
Clc1ccc(COC(Cn2ccnc2)c2ccc(Cl)cc2Cl)cc1 (centres unmarked) [econazole],Kd,[3],5.3 ± 0.4 µM
CYP107W1 W178G mutant (Streptomyces avermitilis; W178G),Km,[4],3.4 ± 0.4 µM
